This passage reports IC50 and T/C results from patent US10294237B2, “Bicyclic heterocyclic amide derivative” (Sumitomo Dainippon Pharma Co., Ltd., priority 2015, dated 2019).

One may read the IC50 as the concentration at which inhibition is half-maximal. In general, T/C refers to the ratio of treated to control.

Assay [1] deals with HCT-116 cells. The assay is described as follows: Test for inhibiting sphere-forming ability of cancer cells (in the presence of BSA). The class given is cell-based. The conditions noted are these: HCT-116 spheres, non-adherent, 5% BSA, 4 days, CellTiter-Glo, read-out: IC50 (Sphere IC50 value; concentration for 50% inhibition of cell proliferation). On the technique in general: In ATP-based viability assays light output follows the ATP content of the culture.

In assay [2] the test system is HCT-116 cells. The assay is described as follows: Anti-tumor effect to HCT-116 tumor-bearing mouse. Format: in vivo. The conditions noted are these: oral, administration period 17 days, nude mouse. The text has this:
The present compound can be used to evaluate the anti-tumor effect thereof. A 4 to 7-week-old nude mouse (BALB/cAnNCrj-nu/nu, female, CHARLES RIVER LABORATORIES JAPAN, INC.) received intradermal transplantation of HCT-116 cells (ATCC) in an amount of 3×10^6 cells/mouse around the ventral portion. The engraftment of HCT-116 cells was observed 5 to 14 days after the transplantation, and then each compound suspended in a solvent such as 0.5% methylcellulose solution was orally administrated to the mouse in a dose of 1 to 100 mg/kg one to twice daily. The tumor volume was measured over time after the administration to evaluate the effect for reducing the tumor volume by the administration of each compound. The tumor volume can be calculated from the minor axis and the major axis of the tumor measured with a digital caliper (Mitutoyo) according to the following formula: Tumor volume [mm^3]=0.5×minor axis [mm]×(major axis [mm])^2
The tumor volume in control administration group treated with only a solvent such as 0.5% methylcellulose solution was compared with that of the present compound administration group, and T/C value was calculated according the following formula to evaluate the anti-tumor effect of the present compound. T/C(%)=(the tumor volume at the end of administration in the present compound administration group−the tumor volume at the start of administration in the present compound administration group)/(the tumor volume at the end of administration in the control administration group−the tumor volume at the start of administration in the control administration group)×100
The T/C values (%) of the present compound on each dosage and administration period in the HCT-116 tumor-bearing mouse are shown below.

The test system of assay [3] is HCT-116 cells. Description: Test for inhibiting sphere-forming ability of cancer cells. Conditions: HCT-116 spheres, non-adherent, serum-free, 4 days, CellTiter-Glo, read-out: IC50 (Sphere IC50 value; concentration for 50% inhibition of cell proliferation). The class given is cell-based.

For `O=C(Nc1cn(Cc2cc(F)c(F)c(F)c2)cn1)c1ccc2c(c1)CCNC2` [Example 6, N-[1-(3,4,5-trifluorobenzyl)-1H-imidazol-4-yl]-1,2,3,4-tetrahydroisoquinoline-6-carboxamide], the IC50 came out at 0.05 µM with HCT-116 cells [1] and 0.06 µM in the assay with HCT-116 cells [3]. The T/C in the assay with HCT-116 cells [2] (dosage 30 mg/kg) is on record as 73%.

Regarding `O=C(Nc1cc2c(cn1)CNCC2)c1cn(Cc2cc(F)c(F)c(F)c2)cn1` [Example 3, N-(5,6,7,8-tetrahydro-2,7-naphthyridin-3-yl)-1-(3,4,5-trifluorobenzyl)-1H-imidazole-4-carboxamide], the IC50 in the assay with HCT-116 cells [1] (Homo sapiens, HCT-116, 96 h) amounted to 0.03 µM; in the assay on HCT-116 cells [3] (Homo sapiens, 96 h), 0.06 µM. Also, the T/C was 90% in the assay with HCT-116 cells [2] (dosage 10 mg/kg) and 79% in the assay with HCT-116 cells [2] (dosage 30 mg/kg).

Turning to `O=C(Nc1cn(Cc2cccc(C(F)(F)F)c2)cn1)c1ccc2c(n1)CCNC2` [Example 10, N-{1-[3-(trifluoromethyl)benzyl]-1H-imidazol-4-yl}-5,6,7,8-tetrahydro-1,6-naphthyridine-2-carboxamide], the 50% inhibitory concentration (IC50) turned out to be 0.05 µM in the assay with HCT-116 cells [1] (Homo sapiens, HCT-116, 96 h) and 0.04 µM with HCT-116 cells [3] (Homo sapiens, 96 h). Moreover, the figures for the T/C with HCT-116 cells [2] (dosage 30 mg/kg) and in the assay on HCT-116 cells [2] (dosage 100 mg/kg) were 55% and 49%, respectively.

`O=C(Nc1cn(Cc2cc(F)c(F)c(F)c2)cn1)c1ccc2c(n1)CCNC2` [Example 11, N-[1-(3,4,5-trifluorobenzyl)-1H-imidazol-4-yl]-5,6,7,8-tetrahydro-1,6-naphthyridine-2-carboxamide]: the IC50 in the assay on HCT-116 cells [1] (Homo sapiens, HCT-116, 96 h) was determined as 0.05 µM; in the assay with HCT-116 cells [3] (Homo sapiens, 96 h), 0.05 µM. Moreover, the T/C is reported as 62% in the assay on HCT-116 cells [2] (dosage 30 mg/kg) and 46% in the assay on HCT-116 cells [2] (dosage 100 mg/kg).

On to `O=C(Nc1cn(Cc2cc(F)c(F)c(F)c2)cn1)c1cnc2c(c1)CCNC2` [Example 12, N-[1-(3,4,5-trifluorobenzyl)-1H-imidazol-4-yl]-5,6,7,8-tetrahydro-1,7-naphthyridine-3-carboxamide], for which the IC50 with HCT-116 cells [1] (Homo sapiens, HCT-116, 96 h) amounted to 0.06 µM; in the assay with HCT-116 cells [3] (Homo sapiens, 96 h) it was 0.07 µM. Besides, the results for the T/C in the assay with HCT-116 cells [2] (dosage 30 mg/kg) and in the assay on HCT-116 cells [2] (dosage 100 mg/kg) were 79% and 73%, respectively.

For the compound `O=C(Nc1cn(Cc2cccc(C(F)(F)F)c2)cn1)c1cnc2c(c1)CCNC2` [Example 13, N-{1-[3-(trifluoromethyl)benzyl]-1H-imidazol-4-yl}-5,6,7,8-tetrahydro-1,7-naphthyridine-3-carboxamide], the IC50 in the assay on HCT-116 cells [1] (Homo sapiens, HCT-116, 96 h) amounted to 0.06 µM; in the assay with HCT-116 cells [3] (Homo sapiens, 96 h), 0.03 µM. In addition, the T/C is given as 62% with HCT-116 cells [2] (dosage 30 mg/kg) and 59% in the assay on HCT-116 cells [2] (dosage 100 mg/kg).
